Measurements as given in US5393752A, “Methylpiperazinoazepine compounds, preparation and use thereof” (Therabel Research S.A./N.V., priority 1994, dated 1995).
Read-outs that look alike come from different tables or passages of the source.

Experiments:
[1] = test system: muscarinergic receptors; parameters: species or system CFY rat; conditions: 1.5 nM (3H) QNB, 25° C., pH 7.5, 60 minutes; non-specific binding with 10^-5 M atropin
[2] = target: T1, D2 dopaminergic receptors (Rattus norvegicus, UniProt P61169); experiment: Affinity test, D2 dopaminergic receptors: (3H)-spiperone displacement in rat striatum membranes; parameters: species or system male Wistar rats; conditions: read-out: Inhibition, % (binding of 3H-spiperone)
T1 construct: The striatum is dissected rapidly and homogenized; from tissue; host or cells: striatum of male Wistar rats, membrane preparation
Protocol: Characterization by (^3 H) spiperone displacement test.
The brain of male Wistar rats (200-250 g) is removed. The striatum is dissected rapidly and homogenized into 20 ml iced buffer ([…], pH=7.4, 25° C.) by means of a Teflon homogenizer. The homogenate is centrifuged at 4° C. at 10000 G during 10 minutes, the concentrate is washed two times with iced buffer and recentrifuged. The final concentrate is suspended into iced buffer (50 nM/HCl, pH=7.4) containing […], […] EDTA. After rehomogenization, the suspension is adjusted to 1 mg proteine per ml.
The binding of (^3 H)-spiperone is evaluated onto the following mixture: 200 μl membrane preparation (0.1-0.2 mg proteine), 100 μl (10^-6 M) test substance and […] buffer for a final volume of 1 ml. Control tubes, which are taken as a reference of the nonspecific binding, contain also 1 μM (+) butaclamol. The samples (in threefold) are then incubated with 0.5 nM (^3 H)spiperone at 25° C. for 60 minutes. This step is stopped by a quick vacuum filtration of the suspension through a glass-fiber filter GF/C. The filter is rinsed three times with 5 ml iced buffer.

[3] = Catalepsy Test (extrapyramidal effects); type: in vivo; conditions: for dose at which catalepsy appears: catalepsy for doses above / cataleptic effect starting from; for cataleptic effect (in words): catalepsy test
Excerpt: See in particular GRAY W. D., OSTERBERG A. C., RAUH C. E., Arch. Int. Pharmacodyn. 134, 198, 1961 and COSTALL B., OLLEY J. E., Neuropharmacology 10, 297, 1971.
This test is representative for the extrapyramidal effects present in numerous neuroleptics (unwanted secondary effect). The compounds of the invention cause very little catalepsy and seem therefore to be free from this unwanted secondary effect. However, some products have shown a slight catalepsy: […]

[4] = Apomorphine Antagonism Test (in vivo), with locomotion and sedative effect; conditions: examples: "At 20 mg/kg" heads the paragraph
Excerpt: The following results are provided by way of example.

[5] = test substance 100 μl (10^-6 M) in final volume 1 ml, 0.5 nM (3H)spiperone, 25° C., 60 min, vs 1 μM (+)butaclamol
[6] = scale from clozapine (20 mg/g) + to haloperidol (0.63 mg/kg) +++++

T1 sequence (P61169 whole entry): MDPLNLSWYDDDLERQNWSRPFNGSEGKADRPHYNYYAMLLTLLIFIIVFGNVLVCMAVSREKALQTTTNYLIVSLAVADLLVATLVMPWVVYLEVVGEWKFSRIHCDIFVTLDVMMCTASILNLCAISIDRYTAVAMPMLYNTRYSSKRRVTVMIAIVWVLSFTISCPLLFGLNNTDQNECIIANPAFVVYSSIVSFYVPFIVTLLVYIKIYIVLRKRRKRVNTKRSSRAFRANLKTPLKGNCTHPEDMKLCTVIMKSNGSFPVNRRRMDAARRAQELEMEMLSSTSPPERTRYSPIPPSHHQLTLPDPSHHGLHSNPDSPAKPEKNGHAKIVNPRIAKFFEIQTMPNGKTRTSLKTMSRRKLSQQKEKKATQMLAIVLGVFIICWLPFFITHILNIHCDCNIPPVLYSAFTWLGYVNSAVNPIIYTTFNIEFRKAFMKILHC

CN1CCN(C2=Nc3ccccc3Sc3ccc(Cl)cc32)CC1 [Clothiapine, reference compound]
Inhibition, % (binding of 3H QNB) [1]: 38.05% | inhibition [2, 5]: 94.6%

CN1CCN(C2=Nc3cc(Cl)ccc3Nc3ccccc32)CC1 [Clozapine, reference compound]
dose at which catalepsy appears [3]: ≥ 20 mg/kg | cataleptic effect (in words) [3]: week cataleptic effect | Apomorphine antagonism, intensity of activity [4, 6]: +

CN1CCN(C2=Nc3ccccc3Nc3ccncc32)CC1 [Example 1, 11-(4-methylpiperazin-1-yl)-5H-pyrido(4,3-b)benzo-1,5-diazepine]
dose at which catalepsy appears [3]: above 40 mg/kg | Inhibition, % (binding of 3H QNB) [1]: 4.48% | inhibition [2]: 56.2%

CN1CCN(C2=Nc3cccnc3Sc3ccc(Cl)cc32)CC1.O=C(O)/C=C/C(=O)O [Example 3, 8-chloro-6-(4-methylpiperazin-1-yl)pyrido(2,3-b)benzo-1,4-thiazepine fumarate]
dose at which catalepsy appears [3]: above 40 mg/kg

CN1CCN(C2=Nc3ccccc3Oc3ncccc32)CC1.O=C(O)/C=C\C(=O)O [Example 4, 5-(4-methylpiperazin-1-yl)pyrido(2,3-b)benzo-1,5-oxazepine maleate]
dose at which catalepsy appears [3]: ≥ 20 mg/kg | cataleptic effect (in words) [3]: slight cataleptic effect

CN1CCN(C2=Nc3cc(Cl)ccc3Oc3ncccc32)CC1.O=C(O)/C=C/C(=O)O [Example 5, 8-chloro-5-(4-methylpiperazin-1-yl)pyrido(2,3-b)benzo-1,5-oxazepine fumarate]
Apomorphine antagonism, intensity of activity [4, 6]: +

CN1CCN(C2=Nc3cccnc3Oc3ccccc32)CC1.O=C(O)/C=C/C(=O)O [Example 7, 6-(4-methylpiperazin-1-yl)pyrido(2,3-b)benzo-1,4-oxazepine fumarate]
Apomorphine antagonism, intensity of activity [4, 6]: +

CN1CCN(C2=Nc3cccnc3Nc3ccc(Cl)cc32)CC1 [Example 10, 8-chloro-6-(4-methylpiperazin-1-yl)-11H-pyrido(2,3-b)benzo-1,4-diazepine]
Inhibition, % (binding of 3H QNB) [1]: 62.08% | inhibition [2, 5]: 31.5%

Cc1ccc2c(c1)C(N1CCN(C)CC1)=Nc1cccnc1N2 [Example 11, 6-(4-methylpiperazin-1-yl)-8-methyl-11H-pyrido(2,3-b)benzo-1,4-diazepine]
Inhibition, % (binding of 3H QNB) [1]: 67.3% | inhibition [2, 5]: 24.8%

CN1CCN(C2=Nc3cccnc3Nc3cc(Cl)ccc32)CC1 [Example 12, 9-chloro-6-(4-methylpiperazin-1-yl)-11H-pyrido(2,3-b)benzo-1,4-diazepine]
Apomorphine antagonism, intensity of activity [4, 6]: +

CN1CCN(C2=Nc3cccnc3Nc3ccc(F)cc32)CC1 [Example 13, 8-fluoro-6-(4-methylpiperazin-1-yl)-11H-pyrido(2,3-b)benzo-1,4-diazepine]
Apomorphine antagonism, intensity of activity [4, 6]: +

CN1CCN(C2=Nc3cccnc3N(C=O)c3ccccc32)CC1 [Example 17, 11-formyl-6-(4-methylpiperazin-1-yl)-11H-pyrido(2,3-b)benzo-1,4-diazepine]
Inhibition, % (binding of 3H QNB) [1]: 43.38% | inhibition [2, 5]: 22.8%

CN1CCN(C2=Nc3cnccc3Sc3ccccc32)CC1 [Example 18, 10-(4-methylpiperazin-1-yl)pyrido(4,3-b)benzo-1,4-thiazepine]
Inhibition, % (binding of 3H QNB) [1]: 57.61% | inhibition [2, 5]: 50.2%

CN1CCN(C2=Nc3ccccc3[Se]c3ccccc32)CC1 [Example 19]
Inhibition, % (binding of 3H QNB) [1]: 78.31% | inhibition [2]: 26.7%

O=C(CCCN1CCC(O)(c2ccc(Cl)cc2)CC1)c1ccc(F)cc1 [Haloperidol, reference compound]
Apomorphine antagonism, intensity of activity ([4]; scale from clozapine + to haloperidol (0.63 mg/kg) +++++): +++++
